Test [1] relates to citrate plasma coagulation (PT). Description: Prothrombin time (PT) plasma clotting test. Type of test: biochemical. As for the experimental part:
(§1) Anticoagutant activity (i.e. inhibition of the proteolytic reactions in the process) is measured by anticoagulant tests, e.g. by the thrombin time (TT), activated partial thromboplastin time (APTT) and prothrombin time (PT) tests [E. J. W. Bovie et al; Mayo Clinic Laboratory Manual of Hemostasis; W. B. Sanuders Co., Philadelphia (1971)]. Plasma, inhibited in spontaneous coagulation, e.g. citrate-plasma, is made to coagulate and the required coagulation time is measured. Upon the action of anticoagulants the coagulation time is prolonged proportionally to the inhibition of the reaction(s) in the process. The anticoagulant effect can be characterized by the substance concentration required to double the coagulation time compared to the control (IC50). The effect of anticoagulants on individual coagulant proteases is measured by the amidolytic method [R. Lottenberg et al., Methods in Enzymol. 80, 341 (1981); G. Cleason, Blood Coagulation and Fibrinolysis 5, 411 (1994)]. The isolated active factor (e.g. thrombin, fXa) and its chromogen or fluorogen peptide-amide substrate are reacted in the presence or absence of the inhibitor, resp. The enzyme inhibiting action is characterized by the inhibitory constant (IC50) measured during amidolysis.
(§2) In the TT test coagulation is initiated by the thrombin added to the citrate plasma. In the system 22 pmol/mL of thrombin is functioning and in the presence of plasma components its inhibition can be measured on the fibrinogen (one of the natural substrates of thrombin) present In the APTT and PT tests the full coagulation process is made to proceed. Depending on the activator fX is activated by the extrinsic or intrinsic pathway. The generated fXa activates prothrombin to thrombin which, in turn, triggers plasma coagulation. In the test the coagulation time is prolonged if the enzymes or one of them is inhibited by the inhibitor. In the APTT and PT tests at most 40 pmole/ml Xa is generated (this is the full amount of factor X present in both systems) while 150 pmole/ml (APTT) and 350 pmole/ml (PT) are generated from thrombin [B Kaiser et al., Thromb. Res. 65, 157 (1992)].
(§3) The in vitro anticoagulant effect of the compounds of general formula (I) was measured by the prothrombin time (PT), activated partial thromboplastin time (APTT) and thrombin time (TT) tests [D. Bagdy et at., Thromb. Haemost. 67, 325 (1992)]. The Xa-factor-inhibiting effect of the compounds was also determined by using the Bz-Ile-Glu-Gly-Arg-pNA chromogen substrate (see method M6).

The target of another test is T1, thrombin (Homo sapiens, UniProt P00734).
T1 construct: The isolated active factor (e.g. thrombin, fXa) and its chromogen or fluorogen peptide-amide substrate are reacted
Description: Thrombin time (TT) plasma clotting test. The test is classed as biochemical. The method, then: as §1, §2, §3

The target of test [2] is T2, fibrin-gel bound thrombin (Homo sapiens, UniProt P00734).
T2 construct: Here prothrombin is converted to thrombin; purchased SIGMA
The experiment in a line: Inhibition of thrombin bound to fibrin-gel (methods M4, M5). Type of test: biochemical. As to conditions: Tos-Gly-Pro-Arg-pNA substrate. The method, then: The plasma clot was obtained by the recalcification of platelet-rich human citrate plasma and fibrin gel by the coagulation of human fibrinogen with human thrombin Z-D-Arg-Gly-Arg-pNA and Tos Gly-Pro-Arg-pNA were used as substrates for measuring the activity of factor Xa and thrombin (methods M1-M5).
Preparation of Fibrin-Gel
a) 200 μL of 6 mg/mL human fibrinogen (SIGMA), 25 μL of 25 NIH U/mL human thrombin (SIGMA) and 40 μL of 100 mM calcium chloride solution are placed in each reaction vessel and the mixtures are stored for one hour at 20-22° C. The fibrin formed is rinsed mildly with 3×2 ml of isotonic saline solution followed by sedimentation to remove the thrombin content of the solution. The efficacy of rinsing is controlled by the process described in Method M1, point c).
Assay of the Inhibition of Thrombin Bound to Fibrin-Gel
a) 0.1-1.0-10 and 100 μg/ml solutions are prepared with Hepes/NaCl buffer (0.01 M Hepes and 0.1 M sodium chloride, pH=7.4).
b) Thereafter the procedure described in Method M3, point b) is followed.

The next test has as its target plasmin (PL) (Homo sapiens, UniProt P00747). The experiment in a line: Fibrin-plate method, plasmin. The following applies: for IC50: fibrin-plate method, hydrolyzed area reduced by 50%. The test is classed as biochemical. The text has this: The inhibitory effect of the new compounds of the invention on plasmin (PL) as well as on plasmin formation induced by tissue plasminagen activator (tPA) and urokinase (UK) was studied by the […] [D. Bagdy et al.; Thromb. Haemost. 67, 325 (1992)]. Compounds C1 and C3 served as controls. […] V. Jackson et al., J. Cardiovasc. Pharmacol. 21, 587 (1993)].
^a IC50 = peptide concentration (mM) where the hydrolyzed area o
the fibrin plate is reduced by 50% compared to the control

Another test has as its system thrombin time (TT). Description: Ex vivo TT in citrate plasma of rabbits after p.o. dosing. Also on record: species or system New Zealand white rabbits. As to conditions: p.o. 5 mg/kg. The method, then: (§4) The anticoagulant and platelet aggregation inhibiting effect of the compounds of general formula (I) was studied In New Zealand white rabbits ex vivo according to D. Bagdy et al [Thromb. Haemost 67. 357 (1992). The compounds were dissolved in buffered isotonic saline solution and administered i.v. (0,04-5.0 mg/kg) or by infusion (0.25-5.0 mg/kg/h) or subcutaneously (0.5-6.0 mg/kg) or p.o. (2.5-20 mg/kg). The effect of the compounds was detectable already within 30 minutes following p.o. administration, peak values were attained after 60-180 minutes and the therapeutic level was maintained dose-dependently for 3→6 hours.
(§5) The in vivo effect of D-cHga Pro-Arg-H (1) is presented in detail in Tables 5 and 6. The corresponding values of C1 are listed as controls. The compound was administered p.o. in doses of 5 mg/kg. The blood samples drawn from the caudal vein in every 30-60 minutes were analyzed. The whole blood clotting time (WBCT) and the inhibition of thrombin-induced blood platelet aggregation (PAI) were determined. The activated partial thromboplastin time (APTT) and the thrombin time (TT) in the citrate plasma obtained from the blood sample were also measured. The APTT and TT values are compiled in Table 5 and the WBCT and PAI values in Table 6.

In test [3] the test system is thrombin-induced blood platelet aggregation. The experiment in a line: Ex vivo inhibition of thrombin-induced blood platelet aggregation (PAI) in rabbits after p.o. dosing. On the set-up: species or system New Zealand white rabbits. As to conditions: p.o. 5 mg/kg. As for the experimental part: as §4, §5
Where [4] appears, read: Table 2, concentration doubling clotting time, read-out: A: IC50, PT.
Where [5] appears, read: Table 2, concentration doubling clotting time, read-out: A: IC50, TT.

Like-named read-outs stand apart in the source and are kept apart here.

plasmin (PL), sequence (P00747 581-810 limits assumed, species assumed): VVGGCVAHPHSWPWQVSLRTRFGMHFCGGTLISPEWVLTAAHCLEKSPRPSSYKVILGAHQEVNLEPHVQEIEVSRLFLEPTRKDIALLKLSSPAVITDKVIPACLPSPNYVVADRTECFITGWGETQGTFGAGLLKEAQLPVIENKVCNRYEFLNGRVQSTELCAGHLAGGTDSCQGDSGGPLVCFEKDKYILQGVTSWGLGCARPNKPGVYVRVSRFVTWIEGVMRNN
plasmin (PL), sequence (P00747 97-580 partner limits assumed, species assumed): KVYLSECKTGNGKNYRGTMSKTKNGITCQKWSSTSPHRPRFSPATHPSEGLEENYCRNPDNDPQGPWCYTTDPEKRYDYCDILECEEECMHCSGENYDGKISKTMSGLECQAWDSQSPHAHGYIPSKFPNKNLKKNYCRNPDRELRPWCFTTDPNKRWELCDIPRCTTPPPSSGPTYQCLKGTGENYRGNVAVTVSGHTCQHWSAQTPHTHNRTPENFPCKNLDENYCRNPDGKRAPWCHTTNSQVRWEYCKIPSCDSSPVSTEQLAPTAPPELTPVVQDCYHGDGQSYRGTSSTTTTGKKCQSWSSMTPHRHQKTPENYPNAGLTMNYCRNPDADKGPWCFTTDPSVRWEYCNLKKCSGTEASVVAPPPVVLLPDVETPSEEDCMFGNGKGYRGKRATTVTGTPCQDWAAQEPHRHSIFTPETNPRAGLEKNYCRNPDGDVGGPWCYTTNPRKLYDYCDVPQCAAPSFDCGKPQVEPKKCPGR

For the molecule `N=C(N)NCCC[C@@H](C=O)NC(=O)[C@H]1CCCN1C(=O)C(O)C1CCCCCC1.N=C(N)NCCC[C@@H](C=O)NC(=O)[C@H]1CCCN1C(=O)C(O)C1CCCCCC1.O=S(=O)(O)O` (stereo partly drawn) [Compound 1, D-2-Cycloheptyl-2-hydroxyacetyl-L-prolyl-L-arginine aldehyde hemisulfate], the IC50 in test [1] (setting [4]) turned out to be 1.2 µM; on thrombin (setting [5]), 0.11 µM; in test [2] it was 0.21 µM; against plasmin (PL), 83 µM. The “B: relative efficacy, PL” value at plasmin (PL) amounted to 0.6. Besides, the “times lower activity than compound C3, first enzyme (PL)” value on plasmin (PL) (versus C3 of Table 4) came out at 7.5. Further, the “TT relative clotting time” value in the test with thrombin time (TT) (0 min) worked out at 1.0; in the test on thrombin time (TT) (30 min) it was 10.57 ± 5.98; with thrombin time (TT) (45 min) it was 10.89 ± 5.89; in the test with thrombin time (TT) (60 min), 11.67 ± 5.69; with thrombin time (TT) (90 min), 14.00 ± 6.48; with thrombin time (TT) (120 min) it was 10.60 ± 4.22. In addition, the “TT relative clotting time” value is 2.22 ± 0.71 with thrombin time (TT) (180 min), 1.23 ± 0.07 in the test on thrombin time (TT) (240 min) and 1.13 ± 0.05 in the test on thrombin time (TT) (300 min). Moreover, the “PAI(%)” value was 0% in test [3] (0 min); 71.0 ± 19.4% in test [3] (30 min); 74.0 ± 13.9% in test [3] (45 min); 91.0 ± 4.5% in test [3] (60 min); 93.0 ± 3.5% in test [3] (90 min); 92.4 ± 6.5% in test [3] (120 min). The “PAI(%)” value in test [3] (180 min) came to 71.6 ± 19.8%; in test [3] (240 min) it was 49.4 ± 21.5%.

For `CN[C@H](Cc1ccccc1)C(=O)N1CCC[C@H]1C(=O)N[C@H](C=O)CCCNC(=N)N` [Compound C1, D-MePhe-Pro-Arg-H], the IC50 in test [1] (setting [4]) amounted to 2.92 µM; in test [1] (read-out: concentration doubling the clotting time in the PT test) it was 2.92 µM; at thrombin (Table 1, concentration doubling clotting time, read-out: B: IC50, TT) it was 0.09 µM; on thrombin (setting [5]), 0.09 µM; on thrombin (read-out: concentration doubling the clotting time in the TT test) it was 0.087 µM; in test [2], 0.3 µM. Also, the IC50 at plasmin (PL) was 54 µM. For the same molecule, at plasmin (PL) (related to the activity of C1 (1/IC50 = 1)), the “B: relative efficacy, PL” value is reported as 1.0. Further, the “TT relative clotting time” value in the test with thrombin time (TT) (0 min) came out at 1.0; in the test on thrombin time (TT) (30 min), 1.52 ± 0.17; in the test with thrombin time (TT) (45 min), 2.50 ± 0.44; with thrombin time (TT) (60 min), 4.75 ± 1.38; with thrombin time (TT) (90 min), 10.50 ± 5.49; in the test on thrombin time (TT) (120 min), 5.51 ± 3.59. Besides, the “TT relative clotting time” value is on record as 2.05 ± 0.38 in the test on thrombin time (TT) (180 min) and 1.81 ± 0.39 with thrombin time (TT) (240 min). Also, the “PAI(%)” value stood at 0% in test [3] (0 min); 52.8 ± 14.7% in test [3] (30 min); 58.4 ± 15.6% in test [3] (45 min); 54.2 ± 11.6% in test [3] (60 min); 83.2 ± 8.9% in test [3] (90 min); 75.2 ± 12.3% in test [3] (120 min). Further, the figures for the “PAI(%)” value in test [3] (180 min) and in test [3] (240 min) were 47.5 ± 20.9% and 32.2 ± 16.0%, respectively.

Values taken from patent US6121241A, “Anticoagulant peptide aldehyde derivatives” (Gyogyszerkutato Intezet Kft., priority 1996, dated 2000).
